The source of these data is patent US8148391B2 (Cephalon, Inc., priority 2006, dated 2012).

Where only a bound is given, the exact number is not on record here.

Experiment [1] has as its target T1, baculovirus-expressed ALK (Homo sapiens, UniProt Q9UM73).
T1 construct: host or cells: baculovirus expression system
The experiment can be described thus: ALK Kinase Assay (ELISA-type, time-resolved fluorescence). It counts as biochemical. The following applies: ALK kinase inhibition, 1 μM ATP (Km level); read-out: ALK Activity. The procedure, abridged: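 Wells were coated with phospholipase C-γ at 10 μg/mL in Tris-buffered saline. Adding 30 ng/ml enzyme started the reaction, which ran at 37° C for 15 minutes before Eu-N1 PT66 antibody detection. Percent inhibition versus log10 concentration gave IC50 by variable-slope fit.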
(In an ELISA, binding on a coated surface is turned into a signal by an enzyme label.)

In experiment [2] the target is T2, c-Met (cytoplasmic domain) (Homo sapiens, UniProt P08581).
T2 construct: 10 ng/mL c-Met (cytoplasmic domain, Invitrogen Corporation #PV3143); purchased Invitrogen Corporation PV3143
The experiment can be described thus: c-Met Kinase Assay (same methods as for ALK, with modifications). The following applies: c-Met kinase inhibition, 1 μM ATP (Km level); read-out: cMet Activity. It counts as biochemical. The procedure, abridged: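 Steps: coat wells with PLC-γ (10 μg/mL, Tris-buffered saline); add 10 ng/mL c-Met cytoplasmic domain to initiate; incubate 15 min, 37° C; detect phosphoproduct via Eu-N1 PT66 antibody.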

T2 sequence (P08581 956-1390 limits assumed): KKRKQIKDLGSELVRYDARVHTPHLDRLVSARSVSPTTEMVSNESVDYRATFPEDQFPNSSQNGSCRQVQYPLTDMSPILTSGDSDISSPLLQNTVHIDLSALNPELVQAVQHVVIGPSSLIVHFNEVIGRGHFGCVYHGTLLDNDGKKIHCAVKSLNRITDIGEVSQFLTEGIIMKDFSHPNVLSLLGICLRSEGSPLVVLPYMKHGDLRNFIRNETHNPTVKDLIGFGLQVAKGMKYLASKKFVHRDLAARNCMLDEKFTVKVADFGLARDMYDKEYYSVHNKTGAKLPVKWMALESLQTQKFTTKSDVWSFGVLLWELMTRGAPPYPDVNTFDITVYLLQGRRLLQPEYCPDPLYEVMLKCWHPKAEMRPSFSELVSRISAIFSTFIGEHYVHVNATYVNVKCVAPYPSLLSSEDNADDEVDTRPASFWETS
T1 sequence (Q9UM73 19-1620): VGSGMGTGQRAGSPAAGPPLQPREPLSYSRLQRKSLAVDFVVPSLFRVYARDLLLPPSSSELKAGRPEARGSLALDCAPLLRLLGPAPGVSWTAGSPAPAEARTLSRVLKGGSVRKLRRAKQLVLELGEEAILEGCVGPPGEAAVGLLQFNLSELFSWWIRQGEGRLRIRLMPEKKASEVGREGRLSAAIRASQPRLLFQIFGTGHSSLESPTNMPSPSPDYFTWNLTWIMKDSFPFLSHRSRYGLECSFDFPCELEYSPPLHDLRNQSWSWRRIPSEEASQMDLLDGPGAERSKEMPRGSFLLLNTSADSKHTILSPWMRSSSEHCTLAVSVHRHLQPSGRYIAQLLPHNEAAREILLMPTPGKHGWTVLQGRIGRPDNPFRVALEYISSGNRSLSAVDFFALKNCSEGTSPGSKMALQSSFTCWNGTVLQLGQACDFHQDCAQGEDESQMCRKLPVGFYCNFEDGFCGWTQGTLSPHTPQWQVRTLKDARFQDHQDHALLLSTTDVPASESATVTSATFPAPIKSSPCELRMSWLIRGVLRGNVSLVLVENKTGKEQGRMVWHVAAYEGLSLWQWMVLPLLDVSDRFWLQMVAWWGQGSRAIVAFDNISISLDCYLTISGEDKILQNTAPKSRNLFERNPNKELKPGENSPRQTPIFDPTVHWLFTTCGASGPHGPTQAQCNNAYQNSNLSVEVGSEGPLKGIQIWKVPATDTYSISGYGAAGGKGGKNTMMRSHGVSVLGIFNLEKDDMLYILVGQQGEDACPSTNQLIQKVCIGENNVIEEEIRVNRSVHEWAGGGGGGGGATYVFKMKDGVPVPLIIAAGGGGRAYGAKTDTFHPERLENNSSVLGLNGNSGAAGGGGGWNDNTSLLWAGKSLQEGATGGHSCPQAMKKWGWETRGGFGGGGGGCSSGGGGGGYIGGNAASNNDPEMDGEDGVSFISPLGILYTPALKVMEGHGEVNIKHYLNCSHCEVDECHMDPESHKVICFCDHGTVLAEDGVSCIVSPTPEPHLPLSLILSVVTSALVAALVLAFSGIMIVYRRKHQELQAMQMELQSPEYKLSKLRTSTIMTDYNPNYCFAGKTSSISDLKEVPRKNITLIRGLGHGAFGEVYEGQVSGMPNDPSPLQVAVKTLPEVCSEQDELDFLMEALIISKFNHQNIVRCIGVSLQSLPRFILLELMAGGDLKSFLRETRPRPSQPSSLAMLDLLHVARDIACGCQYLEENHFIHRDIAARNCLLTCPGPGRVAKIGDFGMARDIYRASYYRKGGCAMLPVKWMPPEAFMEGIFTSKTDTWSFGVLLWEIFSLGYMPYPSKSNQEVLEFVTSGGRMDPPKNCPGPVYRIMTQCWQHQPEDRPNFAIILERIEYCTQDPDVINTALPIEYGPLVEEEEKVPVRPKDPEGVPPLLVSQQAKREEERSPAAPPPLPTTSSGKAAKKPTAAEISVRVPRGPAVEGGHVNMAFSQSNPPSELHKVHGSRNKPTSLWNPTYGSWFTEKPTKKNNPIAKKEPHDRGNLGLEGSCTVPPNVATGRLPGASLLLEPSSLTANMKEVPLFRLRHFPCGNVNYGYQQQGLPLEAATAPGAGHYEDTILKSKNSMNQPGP

With `CNC(=O)c1ccccc1Nc1nc(Nc2ccc3c(c2)C2CC3CN(C(C)C)C2)ncc1Cl` (centres unmarked) [Example 158, 2-[5-chloro-2-(10-isopropyl-10-aza-tricyclo[6.3.1.0*2,7*]dodeca-2,4,6-trien-4-ylamino)-pyrimidin-4-ylamino]-N-methyl-benzamide], the IC50 in experiment [1] was below 100 nM; in experiment [2], 100 to 1000 nM.

Regarding `CNS(=O)(=O)c1ccccc1Nc1nc(Nc2ccc3c(c2)C2CC3CN(C(C)C)C2)ncc1Cl` (centres unmarked) [Example 159, 2-[5-Chloro-2-(10-isopropyl-10-aza-tricyclo[6.3.1.0*2,7*]dodeca-2,4,6-trien-4-ylamino)-pyrimidin-4-ylamino]-N-methyl-benzenesulfonamide], the IC50 is below 100 nM in experiment [1] and 100 to 1000 nM in experiment [2].

Consider `CCN1CC2CC(C1)c1cc(Nc3ncc(Cl)c(NC4C5C=CC(C5)C4C(N)=O)n3)ccc12` (stereo not drawn) [Example 160, (2-exo,3-exo)-3-[5-Chloro-2-(10-ethyl-10-aza-tricyclo[6.3.1.0*2,7*]dodeca-2,4,6-trien-4-ylamino)-pyrimidin-4-ylamino]-bicyclo[2.2.1]hept-5-ene-2-carboxylic acid amide], for which the IC50 in experiment [1] is 100 to 1000 nM; in experiment [2], 1000 to 10000 nM.

With `CNC(=O)c1ccccc1Nc1nc(Nc2ccc3c(c2)C2CC3CN(CCOC)C2)ncc1Cl` (centres unmarked) [Example 161, 2-{5-Chloro-2-[10-(2-methoxy-ethyl)-10-aza-tricyclo[6.3.1.0*2,7*]dodeca-2,4,6-trien-4-ylamino]-pyrimidin-4-ylamino}-N-methyl-benzamide], the values for the IC50 in experiment [1] and in experiment [2] were below 100 nM and 100 to 1000 nM, respectively.

Take `CNS(=O)(=O)c1ccccc1Nc1nc(Nc2ccc3c(c2)C2CC3CN(CCOC)C2)ncc1Cl` (centres unmarked) [Example 162, 2-{5-Chloro-2-[10-(2-methoxy-ethyl)-10-aza-tricyclo[6.3.1.0*2,7*]dodeca-2,4,6-trien-4-ylamino]-pyrimidin-4-ylamino}-N-methyl-benzenesulfonamide]: the IC50 in experiment [1] is below 100 nM; in experiment [2] it was 1000 to 10000 nM.

For the molecule `CNS(=O)(=O)c1ccccc1Nc1nc(Nc2ccc3c(c2)C2CC3CN(S(C)(=O)=O)C2)ncc1Cl` (centres unmarked) [Example 163, 2-[5-Chloro-2-(10-methanesulfonyl-10-aza-tricyclo[6.3.1.0*2,7*]dodeca-2,4,6-trien-4-ylamino)-pyrimidin-4-ylamino]-N-methyl-benzenesulfonamide], the IC50 was below 100 nM in experiment [1] and 1000 to 10000 nM in experiment [2].

In the case of `CNC(=O)c1ccccc1Nc1nc(Nc2ccc3c(c2)C2CC3CN(S(C)(=O)=O)C2)ncc1Cl` (centres unmarked) [Example 164, 2-[5-Chloro-2-(10-methanesulfonyl-10-aza-tricyclo[6.3.1.0*2,7*]dodeca-2,4,6-trien-4-ylamino)-pyrimidin-4-ylamino]-N-methyl-benzamide], the IC50 in experiment [1] was 100 to 1000 nM; in experiment [2] it was below 100 nM.

As to `CC(C)N1CC2CC(C1)c1cc(Nc3ncc(Cl)c(N[C@@H]4CCCC[C@H]4NS(C)(=O)=O)n3)ccc12` (stereo partly drawn) [Example 165, N-{(1R,2R)-2-[5-Chloro-2-(10-isopropyl-10-aza-tricyclo[6.3.1.0*2,7*]dodeca-2,4,6-trien-4-ylamino)-pyrimidin-4-ylamino]-cyclohexyl}-methanesulfonamide], the IC50 lay in the range of 100 to 1000 nM in experiment [1] and 1000 to 10000 nM in experiment [2].

Regarding `CCN1CCc2ccc(Nc3ncc(Cl)c(NC4CCCCNC4=O)n3)cc2CC1` (centres unmarked) [Example 166, 3-[5-Chloro-2-(3-ethyl-2,3,4,5-tetrahydro-1H-benzo[d]azepin-7-ylamino)-pyrimidin-4-ylamino]-azepan-2-one], the IC50 in experiment [1] was below 100 nM; in experiment [2], 1000 to 10000 nM.

Turning to `CNS(=O)(=O)c1ccccc1Nc1nc(Nc2cccc3c2C(=O)NCCN3)ncc1Cl` [Example 171, 2-[5-Chloro-2-(5-oxo-2,3,4,5-tetrahydro-1H-benzo[e][1,4]diazepin-6-ylamino)pyrimidin-4-ylamino]-N-methyl-benzenesulfonamide], the IC50 in experiment [1] and in experiment [2] was 1000 to 10000 nM throughout.

Regarding `CNC(=O)c1ccccc1Nc1nc(Nc2ccc3c(c2)CCC(=O)CC3)ncc1Cl` [Example 172, 2-[5-Chloro-2-(7-oxo-6,7,8,9-tetrahydro-5H-benzocyclo-hepten-2-ylamino)-pyrimidin-4-ylamino]-N-methyl-benzamide], the IC50 in experiment [1] and in experiment [2] was below 100 nM throughout.

As for `CS(=O)(=O)N[C@@H]1CCCC[C@H]1Nc1nc(Nc2ccc3c(c2)CCC(=O)CC3)ncc1Cl` [Example 174, N-{(1R,2R)-2-[5-Chloro-2-(7-oxo-6,7,8,9-tetrahydro-5H-benzocyclohepten-2-ylamino)-pyrimidin-4-ylamino]-cyclohexyl}-methanesulfonamide], the IC50 in experiment [1] was below 100 nM; in experiment [2], 100 to 1000 nM.

For `COc1cc(N2CCOCC2)ccc1Nc1nc(Nc2ccc3c(c2)CCC(=O)CC3)ncc1Cl` [Example 175, 2-[5-Chloro-4-(2-methoxy-4-morpholin-4-yl-phenylamino)-pyrimidin-2-ylamino]-5,6,8,9-tetrahydro-benzocyclohepten-7-one], the IC50 in experiment [1] was below 100 nM; in experiment [2] it was 1000 to 10000 nM.

Take `COCCN1CCc2ccc(Nc3ncc(Cl)c(NC4C5CCC(C5)C4C(N)=O)n3)cc2CC1` (stereo not drawn) [Example 177, (2-exo,3-exo)-3-{5-Chloro-2-[3-(2-methoxy-ethyl)-2,3,4,5-tetrahydro-1H-benzo[d]azepin-7-ylamino]-pyrimidin-4-ylamino}-bicyclo[2.2.1]heptane-2-carboxylic acid amide]: the IC50 in experiment [1] was below 100 nM; in experiment [2], 100 to 1000 nM.

On to `CNC(=O)c1ccccc1Nc1nc(Nc2ccc3c(c2)CCC(N2CCOCC2)CC3)ncc1Cl` (centres unmarked) [Example 178, 2-[5-Chloro-2-(7-morpholin-4-yl-6,7,8,9-tetrahydro-5H-benzocyclohepten-2-ylamino)-pyrimidin-4-ylamino]-N-methyl-benzamide], for which the IC50 in experiment [1] and in experiment [2] was below 100 nM each time.

As for `CS(=O)(=O)N[C@@H]1CCCC[C@H]1Nc1nc(Nc2ccc3c(c2)CCC(N2CCOCC2)CC3)ncc1Cl` (stereo partly drawn) [Example 179, N-{(1R,2R)-2-[5-Chloro-2-(7-morpholin-4-yl-6,7,8,9-tetrahydro-5H-benzocyclohepten-2-ylamino)-pyrimidin-4-ylamino]-cyclohexyl}-methanesulfonamide], the IC50 in experiment [1] was below 100 nM; in experiment [2], 100 to 1000 nM.

Turning to `CNC(=O)c1ccccc1Nc1nc(Nc2ccc3c(c2)CCC(F)(F)CC3)ncc1Cl` [Example 180, 2-[5-Chloro-2-(7,7-difluoro-6,7,8,9-tetrahydro-5H-benzocyclohepten-2-ylamino)-pyrimidin-4-ylamino]-N-methyl-benzamide], the IC50 is below 100 nM in experiment [1] and 100 to 1000 nM in experiment [2].

Regarding `CS(=O)(=O)N[C@@H]1CCCC[C@H]1Nc1nc(Nc2ccc3c(c2)CCC(F)(F)CC3)ncc1Cl` [Example 181, N-{(1R,2R)-2-[5-Chloro-2-(7,7-difluoro-6,7,8,9-tetrahydro-5H-benzocyclohepten-2-ylamino)-pyrimidin-4-ylamino]-cyclohexyl}-methanesulfonamide], the IC50 was below 100 nM in experiment [1] and 1000 to 10000 nM in experiment [2].

With `COc1cc(N2CCOCC2)ccc1Nc1nc(Nc2ccc3c(c2)CCC(F)(F)CC3)ncc1Cl` [Example 182, 5-Chloro-N*2*-(7,7-difluoro-6,7,8,9-tetrahydro-5H-benzocyclohepten-2-yl)-N*4*-(2-methoxy-4-morpholin-4-yl-phenyl)-pyrimidine-2,4-diamine], the IC50 is 100 to 1000 nM in experiment [1] and above 10000 nM in experiment [2].

As for `CCN1CCc2ccc(Nc3ncc(C)c(Nc4ccccc4C(=O)NC)n3)cc2CC1` [Example 191, 2-[2-(3-Ethyl-2,3,4,5-tetrahydro-1H-benzo[d]azepin-7-ylamino)-5-methyl-pyrimidin-4-ylamino]-N-methyl-benzamide], the IC50 in experiment [1] and in experiment [2] was below 100 nM throughout.

As to `CCN1CCc2ccc(Nc3ncc(Br)c(Nc4ccccc4C(=O)NC)n3)cc2CC1` [Example 192, 2-[2-(3-Ethyl-2,3,4,5-tetrahydro-1H-benzo[d]azepin-7-ylamino)-5-bromo-pyrimidin-4-ylamino]-N-methyl-benzamide], the IC50 in experiment [1] and in experiment [2] was below 100 nM each time.

Regarding `CCN1CCc2ccc(Nc3ncc([N+](=O)[O-])c(Nc4ccccc4C(=O)NC)n3)cc2CC1` [Example 193, 2-[2-(3-Ethyl-2,3,4,5-tetrahydro-1H-benzo[d]azepin-7-ylamino)-5-nitro-pyrimidin-4-ylamino]-N-methyl-benzamide], the values for the IC50 in experiment [1] and in experiment [2] were below 100 nM and 100 to 1000 nM, respectively.

In the case of `CCN1CCc2ccc(Nc3ncc(C#N)c(Nc4ccccc4C(=O)NC)n3)cc2CC1` [Example 194, 2-[2-(3-Ethyl-2,3,4,5-tetrahydro-1H-benzo[d]azepin-7-ylamino)-5-cyano-pyrimidin-4-ylamino]-N-methyl-benzamide], the results for the IC50 in experiment [1] and in experiment [2] were below 100 nM and 100 to 1000 nM, respectively.

As for `CCN1CCc2ccc(Nc3ncc(C(F)(F)F)c(Nc4ccccc4C(=O)NC)n3)cc2CC1` [Example 195, 2-[2-(3-Ethyl-2,3,4,5-tetrahydro-1H-benzo[d]azepin-7-ylamino)-5-trifluoromethyl-pyrimidin-4-ylamino]-N-methyl-benzamide], the IC50 in experiment [1] and in experiment [2] was below 100 nM throughout.

Consider `CCN1CCc2ccc(Nc3ncc(F)c(Nc4ccccc4C(=O)NC)n3)cc2CC1` [Example 196, 2-[2-(3-Ethyl-2,3,4,5-tetrahydro-1H-benzo[d]azepin-7-ylamino)-5-fluoro-pyrimidin-4-ylamino]-N-methyl-benzamide], for which the IC50 in experiment [1] and in experiment [2] was below 100 nM throughout.
